Measured values: patent US20130240456A1, “DEVICE AND METHOD FOR LABEL-FREE SEPARATION OF MATERIAL USING MAGNETIC FIELD” (THE GOVERNING COUNCIL OF THE UNIVERSITY OF TORONTO, priority 2012, published 2013)

How the values were obtained:
neonatal rat CM [1] = settings: constructs of treated and control cells, no significant differences
Procedure: Contractile properties of CMs were measured by field stimulation in an electrical stimulation chamber consisting of two parallel carbon electrodes spaced 1 cm apart as described in [24]. Stimulation was provided by an external electric stimulator (Grass s88x). Using monophasic pulses of 2 ms duration and frequency of 1 pulse per second, the excitation threshold (minimum voltage at which synchronous contractions of 75% of the tissue in the field of view can be observed) was first determined. Then the maximum capture rate (maximum beating frequency) was determined at 200% of the determined excitation threshold voltage.

adult mouse CM = settings: 2.5 mM NaNO2, versus untreated, unseparated control
Procedure: Adult mouse CMs were isolated and suspended in Kraft Bruhe (KB) solution at 4° C. The KB solution consisted of 120 mM K-glutamate, 10 mM KCl, 10 mM KH2PO4, 2 mM MgSO4.7H2O, 10 mM Taurine, 5 mM Creatine, 10 mM HEPES, 10 mM Glucose, 0.5 mM EGTA, 0.10% Bovine Serum Albumin (BSA) and a final pH of 7.3 adjusted with KOH. The adult mouse CMs in KB solution were then split into three groups. Each of these three KB solutions containing adult mouse CMs was then further split into four groups; in total, 12 groups of adult mouse CMs in KB solution were maintained at 4° C. and allowed to settle to the bottom of Eppendorf tubes.
The Eppendorf containing KB Solution and adult mouse CMs was left untouched. The other three Eppendorf tubes had the KB solution removed. […] The four Eppendorf tubes were then returned to 4° C. environment to allow the cells settle.
The other three Eppendorf tubes containing adult mouse CMs in the three other solutions were left at room temperature while the device was running.
At the end of the sorting process, each of the Eppendorf tubes that had been sitting at room temperature were equally split into 24-well plate wells. The sorted run was emptied into one well. An equal volume of trypan blue was added to each well. After a minute, 1 mL of either KB or HBSS and 30% FBS was added to each of the wells depending on the group. […]

neonatal rat CM [2] = settings: horizontal device study
Procedure: Cell viability was determined immediately after treatment. In addition, the cells were cultivated in 3D for 7 days as described below.
Live/dead staining was performed by incubating the cells or constructs in a solution of carboxyfluorescein diacetate-succinimidyl ester (CFDA-SE, 10 μM, from Molecular Probes) and propidium iodide (PI, 2.5 μg/mL, from Molecular Probes) for 30-45 minutes at 37° C., according to the manufacturer's protocol (from Molecular Probes, Burlington, Canada). The cells were imaged using a fluorescent microscope (Leica DMIRE2, from Wetzlar, Germany). […] Following treatment, the cells were washed in HBSS, and incubated for 5 hrs in 37° C./5% CO2 incubator. Non-viable cells with compromised cell membranes could be identified by red fluorescence due to binding of PI to their nuclei, while viable cells converted CFDA-SE to the green fluorescent dye […] by esterase-mediated cleavage.
Live/dead staining was performed by incubating the cells or constructs in a solution of carboxyfluorescein diacetate-succinimidyl ester (CFDA-SE, 10 μM, from Molecular Probes) and propidium iodide (PI, 2.5 μg/mL, from Molecular Probes) for 30-45 minutes at 37° C., according to the manufacturer's protocol (from Molecular Probes, Burlington, Canada). The cells were imaged using a fluorescent microscope (Leica DMIRE2, from Wetzlar, Germany). […]

myoglobin [3] = biological target: myoglobin (Rattus norvegicus, UniProt Q9QZ76)
Procedure: (§1) UV-vis measurements were made in cells lysed with NP40 Lysis Buffer, for 30 min on ice, with cell debris spun down at 13000 rpm for 10 min at 4° C. […] ND-1000 Nanodrop spectrophotometer (from Nanodrop Technologies, Inc., Wilmington, Del., USA) was used to collect absorption spectra from 200-700 nm.

myoglobin [4] = biological target: myoglobin (Mus musculus, UniProt P04247); settings: 2.5 mM NaNO2, ratio of absorbance 635 nm/525 nm
Procedure: as §1

Chain of myoglobin (Rattus norvegicus, UniProt Q9QZ76) (Q9QZ76 whole entry): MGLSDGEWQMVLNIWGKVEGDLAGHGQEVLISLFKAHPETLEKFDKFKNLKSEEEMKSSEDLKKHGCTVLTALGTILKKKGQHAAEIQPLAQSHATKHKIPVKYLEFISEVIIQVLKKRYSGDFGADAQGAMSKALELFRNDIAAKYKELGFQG
Chain of myoglobin (Mus musculus, UniProt P04247) (P04247 whole entry): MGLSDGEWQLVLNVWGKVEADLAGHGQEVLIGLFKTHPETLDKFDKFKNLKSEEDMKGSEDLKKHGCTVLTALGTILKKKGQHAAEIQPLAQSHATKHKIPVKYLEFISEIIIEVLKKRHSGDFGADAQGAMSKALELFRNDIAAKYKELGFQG

O=NO [NaNO2, sodium nitrite]
excitation threshold (ET) (neonatal rat CM [1]): about 4.5±1.3 V/cm | maximum capture rate (MCR) (neonatal rat CM [1]): about 8.3±1.0 pps | viability of adult mouse CM after separation and subsequent culture for 24 hr (adult mouse CM): not compromised | viability of CMs after treatment with NaNO2 (FIGS. 23A and 23B) (neonatal rat CM [2]): unaffected | conversion of Mb to metMb (myoglobin [3]; 50 mM NaNO2, 30 min, referencing to the 1 hr time point): 92±3.5% | time at which metMb induction reached the equilibrium value (myoglobin [3]; 50 mM NaNO2, transient study): 30 min | semi-quantitative fold conversion to metMb (myoglobin [3]; 50 mM NaNO2, transient study, stabilized value): about 10 times the initial metMb amount | time of maximum metmyoglobin induction after nitrite was introduced (myoglobin [4]): about 45 min
